Test results from ChEMBL document CHEMBL1128211, “3D-quantitative structure-activity relationships of human immunodeficiency virus type-1 proteinase inhibitors: comparative molecular field analysis of 2-heterosubstituted statine derivatives-implications for the design of novel inhibitors” (J Med Chem, 1995).

Molecular target: Human immunodeficiency virus type 1 protease (Human immunodeficiency virus 1, UniProt Q72874)
Assay: Inhibitory activity was determined against HIV type 1 protease

Row | Ki [nM] | Structure (SMILES)
1 | 5.25 | COc1ccc(CN[C@@H](C(=O)N[C@H](C(=O)NCc2nc3ccccc3[nH]2)C(C)C)[C@H](O)[C@H](Cc2ccccc2)NC(=O)[C@@H](NC(=O)CCc2ccc(C(P(=O)(O)OCc3ccccc3)P(=O)(O)OCc3ccccc3)cc2)C(C)(C)C)cc1 (stereo partly drawn)
2 | 7.59 | CC(C)[C@H](N)C(=O)C[C@@H](Cc1ccccc1)[C@@H](O)[C@H]1CCc2ccc(cc2)OCCOCCOCCCOCCNC(=O)[C@H](C(C)C)CC1=O
3 | 15.8 | COc1ccc(CN[C@@H](C(=O)N[C@H](C(=O)Nc2ccc3ncsc3c2)C(C)C)[C@H](O)[C@H](Cc2ccccc2)NC(=O)[C@@H](NC(=O)OCc2ccccc2)C(C)C)cc1
